From patent US7112584B2, “Nonsteroidal antiinflammatory agents” (Schering AG, priority 2002, dated 2006) come the findings set out here.

As usually defined, the IC50 is the point on the concentration scale where inhibition reaches its midpoint. As usually defined, the melting point is the temperature, or range, at which the solid turns liquid. One may read the EC50 as the concentration needed to bring the measured effect to its halfway point.

The target of one series is T1, human GR (Homo sapiens, UniProt P04150).
T1 construct: made in house; host or cells: Sf9 cells infected with recombinant baculovirus (cytosol preparation)
T1 sequence (P04150 1-777): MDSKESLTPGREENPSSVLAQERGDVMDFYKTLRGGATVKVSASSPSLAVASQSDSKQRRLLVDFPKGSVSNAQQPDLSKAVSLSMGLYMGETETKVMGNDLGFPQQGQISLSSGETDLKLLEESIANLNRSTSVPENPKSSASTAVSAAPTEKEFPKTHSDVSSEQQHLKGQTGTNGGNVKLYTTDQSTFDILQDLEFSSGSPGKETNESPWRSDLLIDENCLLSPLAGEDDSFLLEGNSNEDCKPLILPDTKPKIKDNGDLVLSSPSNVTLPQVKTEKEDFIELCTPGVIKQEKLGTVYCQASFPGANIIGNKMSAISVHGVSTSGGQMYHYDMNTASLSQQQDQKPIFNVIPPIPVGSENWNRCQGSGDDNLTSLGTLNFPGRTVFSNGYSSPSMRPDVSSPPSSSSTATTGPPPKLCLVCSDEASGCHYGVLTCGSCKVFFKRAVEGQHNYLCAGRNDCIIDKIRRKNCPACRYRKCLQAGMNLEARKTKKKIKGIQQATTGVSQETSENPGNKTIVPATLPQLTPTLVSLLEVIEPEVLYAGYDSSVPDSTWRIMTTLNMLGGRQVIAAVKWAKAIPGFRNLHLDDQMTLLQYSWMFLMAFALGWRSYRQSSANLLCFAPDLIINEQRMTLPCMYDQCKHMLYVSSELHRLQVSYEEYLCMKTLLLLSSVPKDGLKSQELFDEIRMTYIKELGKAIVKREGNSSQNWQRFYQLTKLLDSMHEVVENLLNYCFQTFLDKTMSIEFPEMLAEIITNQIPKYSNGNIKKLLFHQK
In words: glucocorticoid receptor (GR) binding test, cytosol of Sf9 cells, [3H]-dexamethasone. To be noted: human GR from Sf9 cytosol. From the text:
The binding of substances to the glucocorticoid receptor (GR) is examined with the aid of a recombinantly produced receptor. Cytosol preparations of Sf9 cells, which had been infected with recombinant baculoviruses, which code for the GR, are used for the binding studies.

Series [1] concerns secretion of cytokine IL-8 in human monocyte cell line THP-1. In words: inhibition of LPS-triggered IL-8 secretion in THP-1 cells (ELISA). It counts as cell-based. The arrangement: Inhibition of IL-8 Secretion Efficacy: concentration or dose not given beside the values. To be noted: THP-1, LPS-triggered; for IC50: Homo sapiens. How it is done: The concentration of the cytokines was determined in the supernatant with use of commercially available ELISA kits.
The potency of the inflammation inhibition is determined by the inhibition of the secretion of cytokine IL-8 in a cellular test. […] The concentration of the cytokine was determined in the supernatant by commercially available ELISA kits. In this connection, the compounds of formula I show a high to very high potency and action (>50%) in the inhibition (see Table 4). The potency of the racemates is considerably lower than that of the pure enantiomers.
For orientation: In an ELISA, binding on a coated surface is turned into a signal by an enzyme label.

A further series has as its target T2, GR (IL-6 promoter) (Homo sapiens, UniProt P04150).
T2 sequence (P04150 1-777): T1 sequence (P04150 1-777)
Nature of the series: reporter gene test in HeLa cells, transrepression, IL-6 promoter-luciferase. The conditions noted are these: for Emax: HeLa, read-out: Transrepression (TR)(IL-6-Promoter) Efficacy. On the technique in general: In a reporter assay the amount or activity of a reporter protein is the signal.

For series [2], the target named is T3, GR (collagenase promoter) (Homo sapiens, UniProt P04150).
T3 construct: endogenous in cells; host or cells: HeLa cells stably transfected with promoter-luciferase reporters (MMTV, IL-6 or collagenase promoter)
T3 sequence (P04150 1-777): T1 sequence (P04150 1-777)
Nature of the series: reporter gene test in HeLa cells, transrepression, collagenase promoter-luciferase. In kind it is cell-based. The conditions noted are these: TPA-induced; for IC50: read-out: Transrepression (TR)(Collagenase Promoter) IC50.

Series [3] relates to croton oil-induced inflammation. In words: croton oil-induced ear inflammation, edema formation in mice. It counts as in vivo. To be noted: systemic, two hours before croton oil, ear weight. How it is done:
The antiinflammatory actions of the compounds of general formula I were tested in the animal experiment by tests in the croton oil-induced inflammation in rats and mice (J. Exp. Med. (1995), 182, 99–108). In this connection, croton oil in ethanolic solution was administered topically to the animals' ears. The test substances were also administered topically or systemically simultaneously with or two hours before the croton oil. After 16–24 hours, the ear weight was measured as a yardstick of the inflammatory edema, the peroxidase activity was measured as a yardstick of the invasions of granuloctyes, and the elastase activity was measured as a yardstick of the invasion of neutrophilic granuloctyes.
The antiinflammatory action of the compounds of general formula I were tested in an animal experiment in croton oil-induced inflammation in mice and in rats (J. Exp. Med. (1995), 182, 99–108). In this connection, croton oil in ethanolic solution was administered topically to the animals' ears. The test substances were systemically administered for two hours before the croton oil. After 16–24 hours, the ear weight was measured as a yardstick for the inflammatory edema.

The test system of series [4] is tyrosinamino transferase (TAT). In words: induction of tyrosinamino transferase (TAT) in liver homogenates. It counts as in vivo. The conditions noted are these: mice, 8 hours after administration, vs untreated control. From the text:
One of the most frequent undesirable effects of a glucocorticoid therapy is the so-called “steroid diabetes” [cf. Hatz, H. J., Glucocorticoide: Immunologische Grundlagen, Pharmakologie und Therapierichtlinien [Glucocorticoids: Immunological Bases, Pharmacology and Therapy Guidelines], Wissenschaftliche Verlagsgesellschaft mbH, Stuttgart, 1998]. The reason for this is the stimulation of the gluconeogenesis in the liver by induction of the enzymes that are responsible for this effect and by free amino acids, which develop from the degradation of proteins (catabolic action of glucocorticoids). A key enzyme of the catabolic metabolism in the liver is the tyrosinamino transferase (TAT). The activity of this enzyme can be determined photometrically from liver homogenates and represents a good yardstick of the undesirable metabolic actions of the glucocorticoids. To measure the TAT induction, the animals are sacrificed 8 hours after the test substances are administered, the livers are removed, and the TAT activity in the homogenate is measured.
As parameters for the side effects of the catabolic metabolism induced by steroids, the activity of the enzyme tyrosinamino transferase (TAT) was determined by photometry from liver homogenates. The activity represents a good yardstick for the undesirable catabolic actions of the glucocorticoids. To measure the TAT induction, the animals (mice and rats) are killed 8 hours after the test substance is administered, the liver is removed, and the TAT activity is measured in the homogenates.

Another series concerns the target T4, GR (MMTV promoter) (Homo sapiens, UniProt P04150).
T4 sequence (P04150 1-777): T1 sequence (P04150 1-777)
In words: reporter gene test in HeLa cells, transactivation, MMTV promoter-luciferase. To be noted: for Transactivating (TA)(MMTV-Promoter) Efficacy: HeLa cells, luciferase; for TA:TR EC50:IC50: MMTV promoter EC50 : IL-6 promoter IC50.

Procedure for GR (IL-6 promoter): (§1) The MMTV promoter (transactivation) and the IL-6 promoter (transrepression) in each case were upstream to the gene that codes for the luciferase. By means of the photometric determination of the enzyme activity of the luciferase, it was possible to measure the activation of the transcription (MMTV-promoter-construct) or the inhibition of the transcription (IL-6-promoter-construct) by the GR.
(§2) This dissociation of the mechanisms of action was determined with the aid of the reporter gene test in stable transfixed human HeLa cells. To determine the transactivation induced by the GR, the MMTV promoter, which is set before a luciferase gene, is used. Via the photometric determination of the luciferase activity, it was possible to determine the transactivation activities of the GR after binding the test compounds. The inhibition of the transcription of the luciferase gene, induced by tetradecanoyl-phorbol acetate (TPA) under the control of the IL-6 promoter or the collagenase promoter (transpression) by the GR after binding the test substances, was also determined by the measurement of luciferase activity in HeLa cells.
Procedure for GR (MMTV promoter): as §1, §2

As for `Cc1noc(=O)c2ccc(NC(=O)C(O)(CC(C)(C)c3cccc4c3OCO4)C(F)(F)F)cc12` (racemic) [Example 1, (±)-6-[4-(Benzo[1,3]dioxol-4-yl)-2-hydroxy-4-methyl-2-trifluoromethyl-valeroyl-amino]-4-methyl-2,3-benzoxazin-1-one], the IC50 on human GR stood at 1.5 nM. In series [1], the IC50 was determined as 76 nM and the “Inhibition of IL-8 Secretion Efficacy” value is listed as 51%. Moreover, on GR (IL-6 promoter), the IC50 was determined as 2 nM and the Emax was 84%.

For `Cc1noc(=O)c2ccc(NC(=O)C(O)(CC3(c4cccc5c4OCC5)CC3)C(F)(F)F)cc12` (racemic) [Example 12], the IC50 on human GR was determined as 0.85 nM. Moreover, in series [1], 42 nM corresponded to half-maximal inhibition (IC50) and the “Inhibition of IL-8 Secretion Efficacy” value is 52%.

`Cc1noc(=O)c2ccc(NC(=O)C(O)(CC(C)(C)c3cc(F)cc4c3OCO4)C(F)(F)F)cc12` (racemic) [Example 18]: the melting point fell in the range of 215 to 217 °C. Besides, on GR (IL-6 promoter), half-maximal inhibition (IC50) required 5.7 nM and the Emax amounted to 63%.

Compound `Cc1noc(=O)c2ccc(NC(=O)C(O)(CC3(c4cc(F)ccc4O)CCC3)C(F)(F)F)cc12` (racemic) [Example 28] registered a melting point of 138 °C. Further, on human GR, the IC50 is 2 nM. In series [1], it took 860 nM to reach half-maximal inhibition (IC50) and the “Inhibition of IL-8 Secretion Efficacy” value turned out to be 100%.

As to `Cc1noc(=O)c2ccc(NC(=O)C(O)(CC3(c4cccc5c4OCC5)CC3)C(F)(F)F)cc12` (single isomer, unassigned) [Example 13], the melting point lay within 249 to 255 °C. Further, the IC50 on human GR is less than 0.3 nM. Also, in series [1], the IC50 was 37 nM and the “Inhibition of IL-8 Secretion Efficacy” value is 68%.

`Cc1noc(=O)c2ccc(NC(=O)C(O)(CC3(c4cc(F)ccc4O)CCC3)C(F)(F)F)cc12` (single isomer, unassigned) [Example 29] returned an IC50 on human GR of 0.35 nM. Also, in series [1], half-maximal inhibition (IC50) required 31 nM and the “Inhibition of IL-8 Secretion Efficacy” value worked out at 86%. In series [2], the “Transrepression (TR)(Collagenase Promoter) Efficacy” value is recorded as 105% and the IC50 amounted to 3.4 nM. In series [3], the “Edema Inhibition with 3 mg/kg” value is given as 34% and the “Edema Inhibition with 30 mg/kg” value turned out to be 66%. Moreover, in series [4], the “Induction Factor for TAT with 3 mg/kg” value was found to be 1.0 and the “Induction Factor for TAT with 30 mg/kg” value turned out to be 2.0. Also, on GR (IL-6 promoter), the IC50 was 1.5 nM and the Emax is 79%. Besides, at GR (MMTV promoter), the EC50 was 13 nM, the “Transactivating (TA)(MMTV-Promoter) Efficacy” value worked out at 59% and the “TA:TR EC50:IC50” value was determined as 8.7.

On human GR, `COc1c(F)cccc1C1(CC(O)(C(=O)Nc2ccc3c(=O)onc(C)c3c2)C(F)(F)F)CCC1` (single isomer, unassigned) [Example 32] yielded a 50% inhibitory concentration (IC50) of 3 nM. Also, on GR (IL-6 promoter), inhibition was half-maximal at 2.2 nM (IC50) and the Emax is 76%.

In the case of `Cc1noc(=O)c2ccc(NC(=O)C(O)(CC(C)(C)c3cccc4c3OCO4)C(F)(F)F)cc12` (single isomer, unassigned; (+)) [Example 2, (+)-6-[4-(Benzo[1,3]dioxol-4-yl)-2-hydroxy-4-methyl-2-trifluoromethyl-valeroyl-amino]-4-methyl-2,3-benzoxazin-1-one], the IC50 on human GR was less than 0.3 nM. For the same compound, in series [1], 29 nM corresponded to half-maximal inhibition (IC50) and the “Inhibition of IL-8 Secretion Efficacy” value is 57%. For the same compound, in series [2], the “Transrepression (TR)(Collagenase Promoter) Efficacy” value worked out at 92% and the IC50 amounted to 3.7 nM. Besides, in series [3], the “Edema Inhibition with 3 mg/kg” value is given as 55% and the “Edema Inhibition with 30 mg/kg” value came out at 86%. In addition, in series [4], the “Induction Factor for TAT with 3 mg/kg” value was determined as 1.4 and the “Induction Factor for TAT with 30 mg/kg” value is 2.4. At GR (IL-6 promoter), the IC50 was determined as 0.92 nM and the Emax stood at 66%. At GR (MMTV promoter), the EC50 stood at 11 nM, the “Transactivating (TA)(MMTV-Promoter) Efficacy” value stood at 71% and the “TA:TR EC50:IC50” value is recorded as 11.9.
